ChEMBL document CHEMBL4261613, “Discovery of a potent orally bioavailable retinoic acid receptor-related orphan receptor-gamma-t (RORγt) inhibitor, S18-000003” (Bioorg Med Chem Lett, 2018)

Tests used:
[1] = molecular target: T1, Nuclear receptor ROR-gamma (Homo sapiens, UniProt P51449); assay: Displacement of [3H]-Digoxin from recombinant human GST-fused RORgammat LBD after 1 to 4 hrs by scintillation counting method
T1 sequence (P51449 whole entry): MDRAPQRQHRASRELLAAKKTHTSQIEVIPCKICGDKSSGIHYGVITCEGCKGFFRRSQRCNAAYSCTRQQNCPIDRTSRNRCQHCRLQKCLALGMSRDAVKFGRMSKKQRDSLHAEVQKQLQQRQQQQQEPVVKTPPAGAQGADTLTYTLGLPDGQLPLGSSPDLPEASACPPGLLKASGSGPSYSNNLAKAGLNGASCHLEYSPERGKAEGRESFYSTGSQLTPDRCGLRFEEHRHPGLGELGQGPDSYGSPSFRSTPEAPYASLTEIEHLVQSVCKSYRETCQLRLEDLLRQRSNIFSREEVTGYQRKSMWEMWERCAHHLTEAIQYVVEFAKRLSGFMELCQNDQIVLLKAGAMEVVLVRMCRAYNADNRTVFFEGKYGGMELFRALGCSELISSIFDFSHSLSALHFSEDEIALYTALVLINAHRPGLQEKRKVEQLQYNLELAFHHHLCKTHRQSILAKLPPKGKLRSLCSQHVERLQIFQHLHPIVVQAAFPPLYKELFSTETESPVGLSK

[2] = molecular target: T2, Nuclear receptor ROR-beta (Homo sapiens, UniProt Q92753); assay: Transrepression of recombinant human GAL4-DBD fused RORbeta LBD expressed in HEK293 cells after 20 hrs by luciferase reporter gene assay; type: cell-based
T2 sequence (Q92753 whole entry): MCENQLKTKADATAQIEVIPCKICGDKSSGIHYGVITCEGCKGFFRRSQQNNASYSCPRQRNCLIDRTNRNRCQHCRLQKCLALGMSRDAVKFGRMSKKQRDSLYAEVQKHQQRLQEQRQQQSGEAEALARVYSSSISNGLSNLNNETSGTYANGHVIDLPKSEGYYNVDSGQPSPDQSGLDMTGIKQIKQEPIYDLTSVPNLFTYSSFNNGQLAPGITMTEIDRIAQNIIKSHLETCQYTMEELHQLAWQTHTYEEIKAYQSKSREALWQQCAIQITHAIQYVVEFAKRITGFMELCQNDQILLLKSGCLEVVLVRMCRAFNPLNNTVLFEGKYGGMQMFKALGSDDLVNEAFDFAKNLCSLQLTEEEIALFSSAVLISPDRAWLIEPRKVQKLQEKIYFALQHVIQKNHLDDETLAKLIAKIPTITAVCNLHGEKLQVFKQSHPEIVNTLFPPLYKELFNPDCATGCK

[3] = molecular target: T3, Oxysterols receptor LXR-beta (Homo sapiens, UniProt P55055); assay: Transrepression of recombinant human GAL4-DBD fused LXRbeta LBD expressed in HEK293 cells after 20 hrs by luciferase reporter gene assay; type: cell-based
T3 sequence (P55055 whole entry): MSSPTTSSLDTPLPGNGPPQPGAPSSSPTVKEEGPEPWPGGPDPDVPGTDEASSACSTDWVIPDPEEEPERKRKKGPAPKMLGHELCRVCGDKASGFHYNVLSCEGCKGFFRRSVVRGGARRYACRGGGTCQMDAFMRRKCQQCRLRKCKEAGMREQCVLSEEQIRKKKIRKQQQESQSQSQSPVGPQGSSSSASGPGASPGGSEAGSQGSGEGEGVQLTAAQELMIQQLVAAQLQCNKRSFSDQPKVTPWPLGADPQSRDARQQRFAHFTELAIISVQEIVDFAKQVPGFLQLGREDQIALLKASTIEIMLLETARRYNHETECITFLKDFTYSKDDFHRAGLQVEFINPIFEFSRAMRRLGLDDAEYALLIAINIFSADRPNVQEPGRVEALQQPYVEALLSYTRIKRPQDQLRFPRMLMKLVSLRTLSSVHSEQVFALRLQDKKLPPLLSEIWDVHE

Mus musculus [4] = assay: In-vivo transrepression of RORgammat in po dosed mouse assessed as inhibition of IL23-stimulated IL17 production administered 30 mins before and 6 hrs after IL-23 injection in skin intradermally measured after 24 hrs by ELISA; type: functional, organism-based
Mus musculus [5] = assay: In-vivo transrepression of RORgammat in mouse assessed as inhibition of IL23-stimulated IL17 production at 30 mg/kg, po administered 30 mins before and 6 hrs after IL-23 injection in skin intradermally measured after 24 hrs by ELISA relative to control; type: functional
Mus musculus [6] = assay: In-vivo transrepression of RORgammat in mouse assessed as inhibition of IL23-stimulated IL17 production at 100 mg/kg, po administered 30 mins before and 6 hrs after IL-23 injection in skin intradermally measured after 24 hrs by ELISA relative to control; type: functional
[7] = AUC in mouse at 30 mg/kg, po; type: ADME, organism-based; conditions: in vivo
[8] = AUC in mouse at 100 mg/kg, po; type: ADME, organism-based; conditions: in vivo
[9] = Cmax in mouse at 30 mg/kg, po; type: ADME, organism-based; design: dose 30 mg/kg, route oral; conditions: in vivo
[10] = Cmax in mouse at 100 mg/kg, po; type: ADME, organism-based; design: dose 100 mg/kg, route oral; conditions: in vivo
[11] = Tmax in mouse at 30 mg/kg, po; type: ADME, organism-based; conditions: in vivo
[12] = Tmax in mouse at 100 mg/kg, po; type: ADME, organism-based; conditions: in vivo

IC50 [1] [µM]	IC50 [2] [µM]	EC50 [3] [µM]	AUC [7] [µg·h/mL]	AUC [8] [µg·h/mL]	Cmax [9] [µg/mL]	Cmax [10] [µg/mL]	Tmax [11] [min]	Tmax [12] [min]	Compound	inhibition (Mus musculus [4])	inhibition in vivo at 30 mg/kg (Mus musculus [5]) [%]	inhibition in vivo at 100 mg/kg (Mus musculus [6]) [%]
< 0.03	> 10	> 30	43.5	96.3	8.35	17.8	90	48	CCS(=O)(=O)c1ccc(CC(=O)Nc2ccc(C(C)(C)C(=O)Nc3ccc(F)cc3F)c(F)c2)cc1	Dose-dependent effect	41	63
< 0.03	> 10	> 30							CCS(=O)(=O)c1ccc(CC(=O)Nc2ccc(C(C)(C)C(=O)Nc3ccc(F)cc3)c(F)c2)cc1			
< 0.03	> 10	> 30	4.74	23	2.7	8.45	30	30	CCS(=O)(=O)c1ccc(CC(=O)Nc2ccc(C(C)(C)C(=O)Nc3cc(C#N)ccn3)c(F)c2)cc1	Dose-dependent effect	22	38
